Experimental data taken from paper PMC9571264 (Molecules, 2022).

How the values were obtained:
Normal WISH Cells = assay: MTT cytotoxicity assay, normal WISH; type: cell-based; conditions: 48 h, read-out: IC50 (µM) ± SEM, Normal WISH Cells
Experimental: (§1) Cytotoxic activities of the synthesized derivatives were screened against leukemia (HL60), liver (HepG2), breast (MCF-7), and lung (A549) cancer cell lines and non-cancerous THLE2 and WISH cells at different concentrations [0.01–100 µM] for 48 h using the MTT assay (Table 1).
(§2) Human promyelocytic leukemia ”HL-60”, human hepatocellular carcinoma “HepG2”, human breast cancer “MCF-7”, human lung cancer “A549” cell lines, and two normal cell lines, THLE-2 as normal adult liver epithelial cells and WISH as normal epithelial cells, were obtained from American Type Culture Collection “Rockville, MD, USA”.
(§3) According to the manufacturer’s protocol, the cells were seeded in 96-well plates at a concentration of 5 × 10^4 cells per well (200 µL). Different concentrations of the tested compounds were used to test the cytotoxicity. […] A non-linear regression of curve fit was used to calculate the IC50.

HepG2 cancer cells = assay: Annexin-V-FITC/PI apoptosis/necrosis flow cytometry, HepG2; type: cell-based, human; conditions: HepG2, IC50 = 13.14 μM, 48 h
Experimental: (See supplementary information for the detailed methodology of flow cytometric analyses, including “FITC/Annexin-V-FITC/PI differential apoptosis/necrosis”, “DNA content-flow cytometry aided cell cycle”, and “Caspase 3/7 green flow cytometry”).
Supplementary materials for detailed methodology
2.2.2.1. Flow cytometric analysis
2.2.2.1.1. FITC/Annexin-V-FITC/PI Differential Apoptosis/Necrosis Assessment Apoptosis and necrosis cell populations are determined using Annexin V-FITC apoptosis detection kit (Abcam Inc., Cambridge Science Park, Cambridge, UK) coupled with 2 fluorescent channels flowcytometry. After treatment with test compounds for 48 h, cells (10^5 cells) are collected by trypsinization and washed twice with ice-cold PBS (pH 7.4). Then, cells are incubated in dark with 0.5 ml of Annexin V-FITC/PI solution for 30 min in dark at room temperature according to manufacturer protocol. After staining, cells are injected via ACEA Novocyte™ flowcytometer (ACEA Biosciences Inc., San Diego, CA, USA) and analyzed for FITC and PI fluorescent signals using FL1 and FL2 signal detector, respectively (λex/em 488/530 […]
nm for FITC and λex/em 535/617 nm for PI). […]
NovoExpress™ software (ACEA Biosciences Inc., San Diego, CA, USA).
2.2.2.1.3. Caspase- 3/7 green flow cytometry assay
The ability of compounds 4 and 9 to induce the enzymatic activities of caspase 3/7 in HL60 and HepG2 respectively were assayed using caspase 3/7 green flow cytometry assay method. Briefly, control and the tested compounds treated cells (2.5x10^5/mL) were rinsed with ice cold PBS, cell lysates were prepared and subsequently protein

Breast Cancer MCF-7 = assay: MTT cytotoxicity assay, MCF-7; type: cell-based; conditions: Homo sapiens, MCF7, 48 h, read-out: IC50 (µM) ± SEM, Breast Cancer MCF-7
Experimental: as §1, §2, §3

HepG2 cells = assay: Agarose gel electrophoresis DNA fragmentation, HepG2; type: cell-based, human
Leukemia Cancer HL60 = assay: MTT cytotoxicity assay, HL60; type: cell-based; conditions: Homo sapiens, HL-60, 48 h, read-out: IC50 (µM) ± SEM, Leukemia Cancer HL60
Experimental: as §1, §2, §3

Normal Liver THLE2 = assay: MTT cytotoxicity assay, normal THLE2; type: cell-based; conditions: Homo sapiens, THLE-2, 48 h, read-out: IC50 (µM) ± SEM, Normal Liver THLE2
Experimental: as §1, §2, §3

SMILES: Cc1c(Br)c(=O)oc2c(Br)c(OC(=O)/C=C/c3ccccc3)c(Br)cc12 [Compound 8b, (2E)-3,6,8-Tribromo-4-methyl-2-oxo-2H-chromen-7-yl Cinnamate]
- IC50 (Normal WISH Cells): 96.8 ± 3.21 µM
- Increase of apoptotic cell death versus control (HepG2 cancer cells): 6.88 fold
- Increase of necrosis-mediated cell death versus control (HepG2 cancer cells): 1.66 fold
- Necrosis, cell percentage (HepG2 cancer cells; control 0.96%): 1.59%
- IC50 (Breast Cancer MCF-7): 7.35 ± 0.67 µM
- DNA fragmentation (HepG2 cells): Loss of intact DNA fragments
- IC50 (Leukemia Cancer HL60): 69 ± 2.14 µM
- IC50 (Normal Liver THLE2): 86.5 ± 2.16 µM
